Assay results published in patent publication US9969796B2, “Peptides and binding partners therefor” (priority 2013, dated 2018).

System: Drosophila melanogaster
Assay: Drosophila melanogaster (fruit fly) injection model
Type: in vivo
Conditions: 250 μg/ml; for flies recovering after 24 hours: 24 hours post-injection; for signs of paralysis in injected flies: cohort of 20 age-matched flies
Method: FIG. 17 is a graph showing the results of an experiment to show Drosophila killing by Ece1-III. The percentage of Drosophila death, 24 hours post-infection of 250 μg/ml His-tagged full length Ece1p, Ece1-II (peptide 2) (FIG. 2), and Ece1-III (peptide 3), into a cohort of 20 age-matched flies.
The applicants also determined the effect of administering full length His-tagged Ece1p and Ece1-III in a Drosophila melanogaster (fruit fly) model.

| Compound | flies recovering after 24 hours [%] | signs of paralysis in injected flies |
| --- | --- | --- |
| CC[C@H](C)[C@H](NC(=O)CNC(=O)[C@H](CCSC)NC(=O)[C@@H](NC(=O)[C@@H](NC(=O)CNC(=O)[C@@H](NC(=O)[C@@H](NC(=O)[C@@H](N)CO)[C@@H](C)CC)[C@@H](C)CC)[C@@H](C)CC)[C@@H](C)CC)C(=O)N[C@@H](CC(C)C)C(=O)NCC(=O)N[C@@H](CC(N)=O)C(=O)N[C@H](C(=O)N1CCC[C@H]1C(=O)N[C@@H](CCC(N)=O)C(=O)N[C@H](C(=O)N[C@H](C(=O)N[C@@H](CCC(N)=O)C(=O)N[C@H](C(=O)N[C@H](C(=O)N[C@@H](CCSC)C(=O)N[C@@H](CO)C(=O)N[C@H](C(=O)N[C@H](C(=O)N[C@@H](CCCCN)C(=O)N[C@@H](C)C(=O)N[C@@H](Cc1ccccc1)C(=O)N[C@@H](CCCCN)C(=O)NCC(=O)N[C@@H](CC(N)=O)C(=O)N[C@@H](CCCCN)C(=O)N[C@@H](CCCNC(=N)N)C(=O)O)C(C)C)[C@@H](C)CC)[C@@H](C)CC)[C@@H](C)CC)[C@@H](C)CC)C(C)C)[C@@H](C)CC [Ece1-III] | 10 | displayed signs of paralysis |
| CC[C@H](C)[C@H](NC(=O)[C@H](C)NC(=O)[C@@H](NC(=O)[C@H](CC(N)=O)NC(=O)[C@H](Cc1ccccc1)NC(=O)[C@H](CCC(=O)O)NC(=O)[C@H](CCC(N)=O)NC(=O)[C@@H]1CCCN1C(=O)[C@H](C)NC(=O)[C@@H]1CCCN1C(=O)[C@@H](NC(=O)[C@@H](NC(=O)[C@@H]1CCCN1C(=O)[C@H](C)NC(=O)[C@H](CCC(N)=O)NC(=O)[C@H](CC(=O)O)NC(=O)[C@H](C)NC(=O)[C@@H]1CCCN1C(=O)[C@H](C)NC(=O)[C@H](C)NC(=O)[C@@H]1CCCN1C(=O)[C@H](C)NC(=O)[C@H](C)NC(=O)[C@@H]1CCCN1C(=O)[C@H](C)NC(=O)[C@@H](NC(=O)[C@@H](N)CC(=O)O)C(C)C)[C@@H](C)O)C(C)C)[C@@H](C)O)C(=O)N[C@H](C(=O)N[C@@H](CCCCN)C(=O)N[C@@H](CCCNC(=N)N)C(=O)O)[C@@H](C)O [Ece1-II] |  | no signs of paralysis |
| full length His-tagged Ece1p: His-tagged full length Ece1 protein of C. albicans | 17.5 | displayed signs of paralysis |
